The source of these data is patent US20240270698A2, “NOVEL PYRIMIDINE DERIVATIVE AND USE THEREOF” (KOREA RESEARCH INSTITUTE OF CHEMICAL TECHNOLOGY, priority 2019, published 2024).

The target of series [1] is T1, human recombinant LRRK2 protein (Homo sapiens, UniProt Q5S007).
T1 construct: purchased Eurofins
Put plainly: LRRK2 kinase activity assay (Eurofins, gamma-33P-ATP, filtermat scintillation counting). Format: biochemical. The note with it: human recombinant LRRK2, 40 minutes at room temperature.

A further series deals with HS746T cancer cells. Put plainly: Anticancer activity, cell viability by CCK-8, HS746T. Format: cell-based. To be noted: 72 hours. The essentials:
(§1)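 HS746T or HepG2 cells seeded at 4,000 cells/well, left 24 h, then exposed to compounds for 72 h. Viability measured by CCK-8 and expressed as % of untreated control.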

Series [2] deals with T2, human recombinant MLK3 protein (Homo sapiens, UniProt Q16584).
T2 construct: purchased Eurofins
T2 sequence (Q16584 whole entry): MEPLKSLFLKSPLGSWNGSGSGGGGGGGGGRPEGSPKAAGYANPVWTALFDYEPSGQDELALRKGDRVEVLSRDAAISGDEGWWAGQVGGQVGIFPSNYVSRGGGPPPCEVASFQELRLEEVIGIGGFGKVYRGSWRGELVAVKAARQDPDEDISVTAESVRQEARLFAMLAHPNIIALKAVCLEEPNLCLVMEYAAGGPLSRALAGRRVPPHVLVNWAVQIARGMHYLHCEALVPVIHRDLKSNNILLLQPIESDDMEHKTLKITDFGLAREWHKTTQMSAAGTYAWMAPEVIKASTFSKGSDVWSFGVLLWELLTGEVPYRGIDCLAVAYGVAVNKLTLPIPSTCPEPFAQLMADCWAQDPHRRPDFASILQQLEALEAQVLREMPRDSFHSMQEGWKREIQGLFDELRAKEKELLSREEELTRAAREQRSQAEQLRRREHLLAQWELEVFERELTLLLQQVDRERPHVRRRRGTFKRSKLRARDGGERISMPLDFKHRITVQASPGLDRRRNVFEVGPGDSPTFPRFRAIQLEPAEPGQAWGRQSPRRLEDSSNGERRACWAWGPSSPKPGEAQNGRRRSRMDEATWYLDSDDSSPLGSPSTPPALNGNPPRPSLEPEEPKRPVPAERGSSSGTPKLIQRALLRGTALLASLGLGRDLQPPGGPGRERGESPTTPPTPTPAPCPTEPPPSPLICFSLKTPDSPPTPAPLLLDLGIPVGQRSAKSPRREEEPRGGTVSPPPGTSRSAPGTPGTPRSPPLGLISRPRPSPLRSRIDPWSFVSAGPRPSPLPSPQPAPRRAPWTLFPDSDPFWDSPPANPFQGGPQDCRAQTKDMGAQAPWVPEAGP
The experiment in a line: MLK3 kinase activity assay (Eurofins, gamma-33P-ATP, filtermat scintillation counting). Format: biochemical. The note with it: human recombinant MLK3, 120 minutes at room temperature.

For the next series, the system named is HepG2 cancer cells. Put plainly: Anticancer activity, cell viability by CCK-8, HepG2. Format: cell-based. To be noted: HepG2, 10 μM, 72 hours. The essentials: as §1

Molecules are shown by their SMILES.

T1 sequence (Q5S007 whole entry): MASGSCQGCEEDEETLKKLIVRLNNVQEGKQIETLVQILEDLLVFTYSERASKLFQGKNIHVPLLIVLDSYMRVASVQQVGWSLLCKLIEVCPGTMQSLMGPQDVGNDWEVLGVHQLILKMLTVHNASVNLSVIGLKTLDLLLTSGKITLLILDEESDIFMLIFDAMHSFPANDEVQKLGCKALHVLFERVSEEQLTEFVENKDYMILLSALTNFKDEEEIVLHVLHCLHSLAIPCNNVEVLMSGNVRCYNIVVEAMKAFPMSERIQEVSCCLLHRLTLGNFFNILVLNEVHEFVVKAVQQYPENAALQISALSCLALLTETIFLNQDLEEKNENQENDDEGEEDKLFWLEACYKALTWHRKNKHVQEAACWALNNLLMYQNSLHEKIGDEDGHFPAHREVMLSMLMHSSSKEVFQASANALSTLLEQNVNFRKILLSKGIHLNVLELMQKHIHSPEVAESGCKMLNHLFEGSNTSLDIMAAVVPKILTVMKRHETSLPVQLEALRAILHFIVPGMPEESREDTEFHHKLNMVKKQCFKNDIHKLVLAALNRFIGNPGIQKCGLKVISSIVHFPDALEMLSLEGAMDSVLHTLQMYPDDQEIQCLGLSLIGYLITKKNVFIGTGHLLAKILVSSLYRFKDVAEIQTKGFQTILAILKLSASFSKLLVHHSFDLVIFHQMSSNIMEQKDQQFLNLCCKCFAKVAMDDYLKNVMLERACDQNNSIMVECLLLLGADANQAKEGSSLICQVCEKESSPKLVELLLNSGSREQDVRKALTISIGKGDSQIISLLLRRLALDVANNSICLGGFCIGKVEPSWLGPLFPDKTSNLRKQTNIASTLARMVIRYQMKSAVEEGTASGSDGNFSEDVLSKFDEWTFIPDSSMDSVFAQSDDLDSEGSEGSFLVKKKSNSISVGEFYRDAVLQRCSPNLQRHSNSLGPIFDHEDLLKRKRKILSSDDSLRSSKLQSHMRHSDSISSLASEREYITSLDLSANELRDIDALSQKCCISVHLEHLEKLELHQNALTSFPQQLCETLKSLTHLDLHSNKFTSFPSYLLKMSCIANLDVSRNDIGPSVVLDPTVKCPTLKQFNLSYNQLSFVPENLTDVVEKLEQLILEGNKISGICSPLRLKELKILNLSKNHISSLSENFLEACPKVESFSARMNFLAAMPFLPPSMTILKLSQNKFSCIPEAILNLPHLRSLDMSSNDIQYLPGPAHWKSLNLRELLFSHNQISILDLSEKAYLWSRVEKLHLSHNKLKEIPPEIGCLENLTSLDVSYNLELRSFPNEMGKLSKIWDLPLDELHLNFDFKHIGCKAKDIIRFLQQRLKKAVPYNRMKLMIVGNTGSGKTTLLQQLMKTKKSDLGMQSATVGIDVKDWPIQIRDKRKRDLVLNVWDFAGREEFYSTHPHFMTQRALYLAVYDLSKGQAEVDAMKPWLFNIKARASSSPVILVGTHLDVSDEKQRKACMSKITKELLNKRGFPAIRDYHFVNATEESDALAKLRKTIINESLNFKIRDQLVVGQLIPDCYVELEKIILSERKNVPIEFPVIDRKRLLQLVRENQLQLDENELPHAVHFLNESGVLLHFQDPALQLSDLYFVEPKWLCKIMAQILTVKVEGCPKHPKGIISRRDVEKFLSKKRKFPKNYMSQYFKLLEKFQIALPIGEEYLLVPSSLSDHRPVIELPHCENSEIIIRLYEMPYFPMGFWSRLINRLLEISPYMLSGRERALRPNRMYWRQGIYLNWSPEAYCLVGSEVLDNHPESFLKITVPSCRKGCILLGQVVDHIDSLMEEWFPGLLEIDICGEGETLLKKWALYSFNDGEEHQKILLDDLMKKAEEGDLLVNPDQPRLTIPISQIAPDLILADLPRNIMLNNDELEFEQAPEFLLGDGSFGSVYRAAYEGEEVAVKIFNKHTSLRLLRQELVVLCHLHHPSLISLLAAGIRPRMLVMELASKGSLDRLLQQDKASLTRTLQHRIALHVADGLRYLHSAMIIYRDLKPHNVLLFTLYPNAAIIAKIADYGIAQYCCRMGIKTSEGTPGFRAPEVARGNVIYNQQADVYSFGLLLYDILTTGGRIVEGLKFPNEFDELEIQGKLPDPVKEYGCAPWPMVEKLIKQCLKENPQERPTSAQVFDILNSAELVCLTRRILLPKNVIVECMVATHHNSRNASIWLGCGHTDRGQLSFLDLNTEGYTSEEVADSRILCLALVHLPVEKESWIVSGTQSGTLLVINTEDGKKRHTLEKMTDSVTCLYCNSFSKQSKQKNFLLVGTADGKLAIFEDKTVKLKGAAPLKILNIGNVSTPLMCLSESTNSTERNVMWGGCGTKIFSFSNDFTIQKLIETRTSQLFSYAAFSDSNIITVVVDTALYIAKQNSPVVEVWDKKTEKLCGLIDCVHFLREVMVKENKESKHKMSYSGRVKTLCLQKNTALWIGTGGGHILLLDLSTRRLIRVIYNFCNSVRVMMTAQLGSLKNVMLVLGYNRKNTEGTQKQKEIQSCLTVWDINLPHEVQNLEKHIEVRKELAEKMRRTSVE

For `Cc1cc2cc(Nc3ncc(Cl)c(Nc4ccccc4P(C)(C)=O)n3)ccc2[nH]1` [compound 69, (2-((5-Chloro-2-((2-methyl-1H-indol-5-yl)amino)pyrimidin-4-yl)amino)phenyl)dimethylphosphine oxide], the 50% inhibitory concentration (IC50) in series [1] and in series [2] was 1 to 10 nM in each case. Further, the “Cell viability (% of Con. 10 μM) HS746T” value in the series on HS746T cancer cells is on record as 23 % of Con. Also, in the series with HepG2 cancer cells, the “Cell viability (% of Con. 10 μM) HepG2” value was 29 % of Con.

Regarding `CP(C)(=O)c1ccccc1Nc1nc(Nc2ccc3[nH]nc(-c4ccc(O)cc4)c3c2)ncc1Cl` [compound 108, (2-((5-chloro-2-((3-(4-hydroxyphenyl)-1H-indazol-5-yl)amino)pyrimidin-4-yl)amino)phenyl)dimethylphosphine oxide], the IC50 in series [1] fell in the range of 10 to 100 nM; in series [2], 1 to 10 nM. In addition, in the series on HS746T cancer cells, the “Cell viability (% of Con. 10 μM) HS746T” value is given as 8 % of Con. Moreover, the “Cell viability (% of Con. 10 μM) HepG2” value in the series with HepG2 cancer cells is recorded as 67 % of Con.

On to `CC1(C)CNCc2cc(Nc3ncc(Cl)c(Nc4ccccc4P(C)(C)=O)n3)ccc21` [compound 52, (2-((5-Chloro-2-((4,4-dimethyl-1,2,3,4-tetrahydroisoquinolin-7-yl)amino)pyrimidin-4-yl)amino)phenyl)dimethylphosphine oxide], for which the 50% inhibitory concentration (IC50) in series [1] and in series [2] was 1 to 10 nM throughout. Further, the “Cell viability (% of Con. 10 μM) HS746T” value in the series with HS746T cancer cells is 1 % of Con. The “Cell viability (% of Con. 10 μM) HepG2” value in the series with HepG2 cancer cells is given as 21 % of Con.

For the compound `CP(C)(=O)c1ccccc1Nc1nc(Nc2ccc3c(c2)CCNC3)ncc1Cl` [compound 49, (2-((5-Chloro-2-((1,2,3,4-tetrahydroisoquinolin-6-yl)amino)pyrimidin-4-yl)amino)phenyl)dimethylphosphine oxide], the 50% inhibitory concentration (IC50) in series [1] and in series [2] was 1 to 10 nM each time. The “Cell viability (% of Con. 10 μM) HS746T” value with HS746T cancer cells is reported as 0.3 % of Con. Further, in the series with HepG2 cancer cells, the “Cell viability (% of Con. 10 μM) HepG2” value is listed as 31 % of Con.

With `CP(C)(=O)c1ccccc1Nc1nc(Nc2ccc3nc(S)sc3c2)ncc1Cl` [compound 23, (2-((5-Chloro-2-((2-mercaptobenzo[d]thiazol-6-yl)amino)pyrimidin-4-yl)amino)phenyl)dimethylphosphine oxide], the IC50 in series [1] and in series [2] was 10 to 100 nM each time. For the same compound, the “Cell viability (% of Con. 10 μM) HS746T” value with HS746T cancer cells is on record as 26 % of Con. Further, in the series with HepG2 cancer cells, the “Cell viability (% of Con. 10 μM) HepG2” value is 27 % of Con.

With `CP(C)(=O)c1ccccc1Nc1nc(Nc2ccc3[nH]nc(-c4cccc(O)c4)c3c2)ncc1Cl` [compound 118, (2-((5-chloro-2-((3-(3-hydroxyphenyl)-1H-indazol-5-yl)amino)pyrimidin-4-yl)amino)phenyl)dimethylphosphine oxide], the IC50 in series [1] was in the range of 10 to 100 nM; in series [2], 1 to 10 nM. Moreover, in the series with HS746T cancer cells, the “Cell viability (% of Con. 10 μM) HS746T” value is reported as 5 % of Con. For the same compound, the “Cell viability (% of Con. 10 μM) HepG2” value with HepG2 cancer cells is reported as 43 % of Con.

Take `CP(C)(=O)c1ccccc1Nc1nc(Nc2ccc3[nH]nc(-c4cccc(C#N)c4)c3c2)ncc1Cl` [compound 116, 3-(5-((5-Chloro-4-((2-(dimethylphosphoryl)phenyl)amino)pyrimidin-2-yl)amino)-1H-indazol-3-yl)benzonitrile]: the IC50 in series [1] was 10 to 100 nM; in series [2], 1 to 10 nM. The “Cell viability (% of Con. 10 μM) HS746T” value in the series with HS746T cancer cells is 19 % of Con. In addition, the “Cell viability (% of Con. 10 μM) HepG2” value in the series on HepG2 cancer cells is 32 % of Con.

On to `CC(=O)c1ccc(-c2n[nH]c3ccc(Nc4ncc(Cl)c(Nc5ccccc5P(C)(C)=O)n4)cc23)cc1` [compound 106, 1-(4-(5-((5-chloro-4-((2-(dimethylphosphoryl)phenyl)amino)pyrimidin-2-yl)amino)-1H-indazol-3-yl)phenyl)ethan-1-one], for which the half-inhibitory concentration (IC50) in series [1] lay within 10 to 100 nM; in series [2], 1 to 10 nM. In addition, the “Cell viability (% of Con. 10 μM) HS746T” value in the series with HS746T cancer cells is 17 % of Con. Moreover, the “Cell viability (% of Con. 10 μM) HepG2” value in the series with HepG2 cancer cells is on record as 75 % of Con.
